Common to all, as to test: growth of human tumour cells (NCI), 48 h
The test system of assay [1] is 786-0.
Assay [2] concerns UACC-257.
Assay [3] deals with CCRF-CEM.
The test system of assay [4] is Hs-578T.
Assay [5] has as its system OVCAR-3.
Assay [6] relates to SF-295.
Assay [7] concerns SF-539.
Assay [8] relates to MDA-N.
The subject of assay [9] is SK-MEL-5.
The test system of assay [10] is NCI/ADR-RES.
The test system of assay [11] is UACC-62.
Assay [12] has as its system SN12C.
Assay [13] relates to HL-60.
The subject of assay [14] is OVCAR-8.
Assay [15] concerns A549.
In assay [16] the test system is HCT-116.
Assay [17] has as its system HOP-92.
In assay [18] the test system is CAKI-1.
The test system of assay [19] is PC-3.
The subject of assay [20] is IGROV-1.

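In this assay, cells in 96-well plates receive the compound at five concentrations for 48 hours. Endpoints are linearly interpolated between the surrounding concentrations. GI50: concentration for 50% inhibition of growth.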 Calls of active or inactive are those of the source. Rule as the data show it: active = GI50 up to about 1.1 µM and inactive = higher. Some results are limits rather than exact numbers.

`C=C1CC2CC(=O)C(O)C(C1)C2` (centres undefined): the GI50 in assay [1], in [2], in assay [3], in assay [4], in assay [5] and in assay [6] was > 100 µM (inactive) in each case. Besides, the GI50 in assay [7], in [8], in [9], in assay [10], in assay [11] and in [12] was > 100 µM (inactive) each time. The GI50 in [13], in assay [14], in assay [15], in assay [16], in [17] and in assay [18] was > 100 µM (inactive) in each case.

Regarding `COP1(=S)OCC2CCC[C@@H]2O1` (some centres undefined), the GI50 in [1], in assay [2], in assay [3], in assay [19], in [20] and in [5] was > 100 µM (inactive) in each case. Further, the GI50 in [6], in assay [7], in [8], in assay [9], in assay [10] and in assay [11] was > 100 µM (inactive) each time. Besides, the GI50 in assay [12], in assay [13], in assay [14], in assay [15], in [16] and in assay [17] was > 100 µM (inactive) each time. In addition, the GI50 in [18] was > 100 µM (inactive).

As for `COc1ccc(N[S+]([O-])c2ccccc2OC)cc1` (centres undefined), the GI50 in [1] is 43.3 µM (inactive); in assay [2], 33.7 µM (inactive); in assay [3], 26.1 µM (inactive); in assay [4] it was 21.7 µM (inactive); in [20], 7.87 µM (inactive); in assay [5], 61.4 µM (inactive). The GI50 is 31.7 µM (inactive) in assay [6]; 18.2 µM (inactive) in [7]; 33.4 µM (inactive) in assay [8]; 11.2 µM (inactive) in assay [9]; 15.9 µM (inactive) in assay [10]; 2.07 µM (inactive) in assay [11]. The GI50 was > 100 µM (inactive) in assay [12]; 17.7 µM (inactive) in [13]; 23.7 µM (inactive) in assay [14]; 16.2 µM (inactive) in [15]; 13.9 µM (inactive) in assay [16]; 25.8 µM (inactive) in [18].

Regarding `COc1cc(C(=O)n2c3ccc(Br)cc3c3nc4ccccc4nc32)cc(OC)c1OC`, the GI50 was 44.8 µM (inactive) in assay [1]; > 100 µM (inactive) in assay [2]; > 100 µM (inactive) in assay [3]; > 100 µM (inactive) in assay [19]; > 100 µM (inactive) in [20]; > 100 µM (inactive) in [5]. Besides, the GI50 was 64 µM (inactive) in assay [6]; 23.8 µM (inactive) in [7]; > 100 µM (inactive) in assay [8]; > 100 µM (inactive) in assay [9]; > 100 µM (inactive) in [10]; 42.6 µM (inactive) in assay [11]. The GI50 in assay [12] was > 100 µM (inactive); in assay [13], > 100 µM (inactive); in assay [14], > 100 µM (inactive); in assay [16], > 100 µM (inactive); in assay [17], 54.5 µM (inactive); in assay [18], > 100 µM (inactive).

On to `N#Cc1cc2c(cc1Cl)Sc1nccn1S2(=O)=O`, for which the GI50 in [1] is 14.8 µM (inactive); in assay [2] it was 2.21 µM (inactive); in assay [3] it was 0.506 µM (active); in assay [19], 4 µM (inactive); in assay [4], 2.68 µM (inactive); in assay [20], 6.38 µM (inactive). Also, the GI50 is 0.668 µM (active) in [5]; 4.31 µM (inactive) in [6]; 3.7 µM (inactive) in [7]; 9.93 µM (inactive) in assay [9]; 1.68 µM (inactive) in [10]; 2.55 µM (inactive) in assay [11]. Besides, the GI50 in assay [12] was 7.57 µM (inactive); in [13] it was 3.08 µM (inactive); in [14] it was 2.82 µM (inactive); in [15] it was 12.8 µM (inactive); in assay [16] it was 1.79 µM (inactive); in assay [17], 4.93 µM (inactive). In addition, the GI50 in assay [18] was 1.4 µM (inactive).

With `NC1=NC(=O)C2(NN1)c1ccccc1-c1ccccc12`, the GI50 in assay [1], in [3], in assay [19], in [20], in [5] and in assay [6] was > 10 µM (inactive) throughout. Further, the GI50 is > 10 µM (inactive) in assay [7]; > 10 µM (inactive) in assay [8]; > 10 µM (inactive) in assay [9]; 7.41 µM (inactive) in assay [10]; > 10 µM (inactive) in assay [12]; 8.99 µM (inactive) in assay [13]. For the same compound, the GI50 in [14], in assay [15], in [16], in [17] and in assay [18] was > 10 µM (inactive) throughout.

Regarding `C[S+](C)CC(=O)c1ccc2c(c1)Sc1ccccc1O2`, the GI50 is 2.72 µM (inactive) in [1]; 4.72 µM (inactive) in [2]; 5.27 µM (inactive) in [3]; 1.04 µM (active) in assay [19]; 3.45 µM (inactive) in assay [4]; 2.75 µM (inactive) in [20]. Moreover, the GI50 in [5] was 2.4 µM (inactive); in [6], 5.25 µM (inactive); in [7], 0.69 µM (active); in assay [9], 1.08 µM (active); in [10], 6.55 µM (inactive); in assay [11] it was 3.91 µM (inactive). Moreover, the GI50 in [12] was 6.34 µM (inactive); in assay [13] it was 1.61 µM (inactive); in assay [14], 3.39 µM (inactive); in assay [15], 5.68 µM (inactive); in assay [16] it was 1.32 µM (inactive); in assay [17] it was 3.74 µM (inactive). Moreover, in assay [18], the GI50 was 4.39 µM (inactive).

Regarding `O=P(O)(CN1CCN(CP(=O)(O)c2ccccc2)CCN(CP(=O)(O)c2ccccc2)CC1)c1ccccc1`, the GI50 was 78 µM (inactive) in assay [1]; > 100 µM (inactive) in assay [3]; > 100 µM (inactive) in [20]; 56.6 µM (inactive) in assay [5]; > 100 µM (inactive) in assay [6]; 67.1 µM (inactive) in [7]. Besides, the GI50 is 67.8 µM (inactive) in [8]; 69.3 µM (inactive) in assay [9]; > 100 µM (inactive) in [10]; > 10 µM (inactive) in [11]; > 100 µM (inactive) in assay [13]; > 100 µM (inactive) in assay [14]. For the same compound, the GI50 is 47.6 µM (inactive) in assay [15], 36.8 µM (inactive) in [16] and 45.8 µM (inactive) in [18].

With `CN(C)C(=O)Oc1ccc(-c2cn3cc(NC(=O)c4ccccc4)ccc3n2)cc1`, the GI50 was > 100 µM (inactive) in [1]; 53.8 µM (inactive) in [2]; 99.5 µM (inactive) in assay [3]; > 100 µM (inactive) in assay [19]; 70.8 µM (inactive) in [20]; 53.7 µM (inactive) in assay [5]. In addition, the GI50 in [6] is > 100 µM (inactive); in assay [7] it was > 100 µM (inactive); in assay [8], > 100 µM (inactive); in [9] it was 21.4 µM (inactive); in assay [10] it was > 100 µM (inactive); in [11] it was > 100 µM (inactive). The GI50 in assay [12] is > 100 µM (inactive); in assay [14], > 100 µM (inactive); in [15] it was 83.4 µM (inactive); in [16], > 100 µM (inactive); in assay [17], > 100 µM (inactive); in assay [18], > 100 µM (inactive).

For the compound `C=C(C)C12OC3(c4ccccc4)OC1C1C4OC4(CO)C(O)C4(O)C(=O)C(C)=CC4C1(O3)C(C)C2OC(=O)/C=C/C=C/c1ccccc1` (centres undefined), the GI50 was 0.101 µM (active) in assay [1]; 0.453 µM (active) in assay [2]; 0.128 µM (active) in assay [3]; 0.111 µM (active) in assay [19]; 0.537 µM (active) in [20]; 0.109 µM (active) in [5]. Also, the GI50 in [6] is < 0.0005 µM (active); in assay [7], 0.372 µM (active); in assay [8], < 0.0005 µM (active); in assay [9], 0.0716 µM (active); in assay [10], 0.344 µM (active); in assay [11], 0.253 µM (active). For the same compound, the GI50 in assay [12] is 0.112 µM (active); in assay [13], < 0.0005 µM (active); in assay [14], 0.357 µM (active); in assay [15], < 0.0005 µM (active); in [16], 0.228 µM (active); in assay [17], < 0.0005 µM (active). In addition, in [18], the GI50 was 0.504 µM (active).

With `CO[C@H]1[C@@H](O)[C@@H](C)O[C@@H](O[C@H]2CC[C@@]3(C)[C@H](CC[C@@H]4[C@@H]3CC[C@]3(C)[C@@H](C5=CC(=O)OC5)[C@@H](OC(C)=O)C[C@]43O)C2)[C@@H]1O` [NERITALOSIDE], the GI50 is 0.0176 µM (active) in assay [1]; 0.1 µM (active) in [2]; 0.029 µM (active) in assay [3]; 0.0256 µM (active) in assay [19]; 0.0202 µM (active) in assay [4]; 0.0371 µM (active) in [20]. Further, the GI50 in assay [5] was 0.0229 µM (active); in assay [6], 0.0461 µM (active); in [7], 0.0248 µM (active); in [9], 0.0405 µM (active); in assay [10] it was 0.0486 µM (active); in assay [11], 0.1 µM (active). Further, the GI50 is 0.0152 µM (active) in [12]; 0.0566 µM (active) in assay [13]; 0.0723 µM (active) in [14]; 0.0104 µM (active) in assay [15]; 0.0219 µM (active) in assay [16]; 0.149 µM (active) in [17]. The GI50 in assay [18] is 0.0208 µM (active).

Source of the values: ChEMBL document CHEMBL1201862, “PubChem BioAssay data set” (2004).
